Assay results taken from PMC12714101, “CD160-Derived Peptide as a Bidirectional Inhibitor Toward Immune Checkpoints BTLA/HVEM and HVEM/LIGHT” (Journal of Medicinal Chemistry, 2025).
Where “and” joins values, the source holds several entries; their conditions need not be identical. Equal entries are not always repeated. Where a SMILES comes first, the peptide text is derived from it.

Legend:
HVEM/LIGHT interaction = experiment: Cellular reporter assay, HVEM reporter cells (JE6.1-NF-κB::eGFP) stimulated with TCS LIGHT; type: cell-based, human; settings: 24 h coculture, three experiments
Method: These findings prompted us to investigate whether the peptide is also capable of inhibiting the binding of HVEM to its ligand–the LIGHT protein. Accordingly, ELISA and cell-based assays were conducted under the same conditions as those used for the BTLA/HVEM complex, with the exception that LIGHT was used instead of BTLA.
(§1) Cellular studies were performed in the same procedure as we described previously for gD- and BTLA-derived peptides. , The peptides were dissolved in the medium, and their final concentrations in wells were 150, 50, and 16,7 μM. Briefly, reporter cells expressing HVEM (JE6.1-NF-κB::eGFP) (5 × 10^4 cells/well) were preincubated with peptides for 30 min in a 96-well flat-bottom plate. Subsequently, the second cell line expressing BTLA (TCS BTLA) or LIGHT (TCS LIGHT) (2 × 10^4 cells/well) was added and cocultured for 24 h at 37 °C in an atmosphere of 5% CO2. Next, an APC-conjugated mCD45.2 antibody to exclude TCS from the reporter cells was added. The expression of the reporter gene (eGFP) was measured via flow cytometry using a CytoFLEX flow cytometer (Beckman Coulter Inc., Brea, CA, USA), and the results were analyzed using FlowJo v10.10 (FlowJo LLC, Ashland, OR, USA). The data were analyzed using GraphPad Prism 8 software (San Diego, CA, USA).

BTLA/HVEM interaction = experiment: Cellular reporter assay, HVEM reporter cells (JE6.1-NF-κB::eGFP) stimulated with TCS-BTLA; type: cell-based, human; settings: 30 min preincubation, 24 h coculture, NF-κB::eGFP by flow cytometry, mean of four independent experiments in duplicate
Method: In the next step of the study, the inhibitory properties of the designed peptides were evaluated using previously described cell-based assays. The experiment utilized reporter cells expressing HVEM (JE6.1-NF-κB::eGFP) and T cell stimulator cells expressing BTLA (TCS-BTLA). Activation of the reporter cells by TCS followed a two-signal model. The first is generated through the interaction between the T cell receptor–cluster of differentiation 3 (TCR–CD3) complex on the surface of the reporter cells and a membrane-bound antihuman CD3 single-chain antibody fragment (mAb aCD3) expressed on the TCS cells. The second signal is provided by the binding of HVEM and BTLA, which in this assay results in a strong costimulatory signal via HVEM. Activation of the reporter cells leads to the expression of nuclear factor kappa light chain enhancer of activated B cells (NF-κB), which correlates with the level of enhanced green fluorescent protein (eGFP), measured by flow cytometry. In the absence of peptides, NF-κB expression is normalized to 100%. Disruption of the BTLA/HVEM interaction by peptides results in a concentration-dependent decrease in NF-κB levels. In this study, HVEM-expressing reporter cells were stimulated with BTLA-expressing TCS cells in the presence or absence of tested peptides at three different concentrations.
as §1

CC[C@@H]1NC(=O)[C@@H](NC(=O)[C@H](CCC(N)=O)NC(=O)[C@H](Cc2ccc(O)cc2)NC(C)=O)CSSC[C@@H](C(=O)N[C@@H](Cc2c[nH]cn2)C(=O)N[C@@H](Cc2ccccc2)C(=O)N[C@@H](Cc2ccccc2)C(N)=O)NC(=O)[C@H](CCC(N)=O)NC(=O)[C@H](CC(C)C)NC(=O)[C@H](CCCNC(=N)N)NC(=O)[C@H]([C@@H](C)CC)NC(=O)CNC(=O)[C@H](CO)NC(=O)[C@H](CCCCN)NC(=O)[C@H](CCC(N)=O)NC(=O)[C@H](CO)NC(=O)[C@H](CCCNC(=N)N)NC(=O)[C@H](C)NC1=O [A5, CD160(110–128) ^(C113X,G125C)] (HELM PEPTIDE1{[ac].Y.Q.C.[Abu].A.R.S.Q.K.S.G.I.R.L.Q.C.H.F.F.[am]}$PEPTIDE1,PEPTIDE1,4:R3-17:R3$$$V2.0)
Inhibition of NF-κB activation, HVEM/LIGHT cell-based assay, 16.67 μM (HVEM/LIGHT interaction; peptide 16.67 μM): 13%
Inhibition of NF-κB activation, HVEM/LIGHT cell-based assay, 50 μM (HVEM/LIGHT interaction; peptide 50 μM): 34%
Inhibition of NF-κB activation, HVEM/LIGHT cell-based assay, 150 μM (HVEM/LIGHT interaction; peptide 150 μM): 72%
Inhibition - Cellular assay 16.67 µM (BTLA/HVEM interaction; peptide 16.67 μM): ~14% and 14.03%
Inhibition - Cellular assay 50 µM (BTLA/HVEM interaction; peptide 50 μM): 59.04%
Inhibition - Cellular assay 150 µM (BTLA/HVEM interaction; peptide 150 μM): 80.42%
